# System: 648629-189-R-J1-PDC complex spheroids viability
# Assay: Anticancer human tumor 648629-189-R-J1-PDC patient-derived bladder carcinoma cell line growth inhibition [CLK]
# Conditions: for IC50: curve of first compound; for viability, T/C: stronger effect = lower value
# How it was run: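 Patient-derived tumor cells grown as complex spheroids with HUVEC endothelial cells and mesenchymal stem cells, treated with drug combinations. Concentrations descend in half-log steps from near clinical Cmax, or from 10 microM if Cmax unknown.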
# [1] = second compound 0.0316 µM, first compound 0.0316 µM
# [2] = second compound 0.0316 µM, first compound 0.1 µM
# [3] = second compound 0.0316 µM, first compound 0.316 µM
# [4] = second compound 0.0316 µM, first compound 1 µM
# [5] = second compound 0.0316 µM, first compound 3.16 µM
# [6] = second compound 0.0316 µM, first compound 10 µM
# [7] = second compound 0.1 µM, first compound 0.0316 µM
# [8] = second compound 0.1 µM, first compound 0.1 µM
# [9] = second compound 0.1 µM, first compound 0.316 µM
# [10] = second compound 0.1 µM, first compound 1 µM
# [11] = second compound 0.1 µM, first compound 3.16 µM
# [12] = second compound 0.1 µM, first compound 10 µM
# [13] = second compound 0.316 µM, first compound 0.0316 µM
# [14] = second compound 0.316 µM, first compound 0.1 µM
# [15] = second compound 0.316 µM, first compound 0.316 µM
# [16] = second compound 0.316 µM, first compound 1 µM
# [17] = second compound 0.316 µM, first compound 3.16 µM
# [18] = second compound 0.316 µM, first compound 10 µM
# [19] = second compound 1 µM, first compound 0.0316 µM
# [20] = second compound 1 µM, first compound 0.1 µM
# [21] = second compound 1 µM, first compound 0.316 µM
# [22] = second compound 1 µM, first compound 1 µM
# [23] = second compound 1 µM, first compound 3.16 µM
# [24] = second compound 1 µM, first compound 10 µM
# [25] = second compound 3.16 µM, first compound 0.0316 µM
# [26] = second compound 3.16 µM, first compound 0.1 µM
# [27] = second compound 3.16 µM, first compound 0.316 µM
# [28] = second compound 3.16 µM, first compound 1 µM
# [29] = second compound 3.16 µM, first compound 3.16 µM
# [30] = second compound 3.16 µM, first compound 10 µM
# [31] = second compound 10 µM, first compound 0.0316 µM
# [32] = second compound 10 µM, first compound 0.1 µM
# [33] = second compound 10 µM, first compound 0.316 µM
# [34] = second compound 10 µM, first compound 1 µM
# [35] = second compound 10 µM, first compound 3.16 µM
# [36] = second compound 10 µM, first compound 10 µM
# 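Throughout, for viability, T/C: drug exposure lasted seven days before viability readout; 100% = DMSO vehicle control wells.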
compound,measurement,setting,value
COc1ccc([C@@H](O)c2cc(-c3ncnc4cc(N5CCOCC5)ccc34)c(F)cc2Cl)nn1 + CN1CCN(c2cc(C(=O)Nc3cc4cc(-c5cnn(C)c5)ccc4cn3)ccn2)CC1,IC50,second compound 0.0316 µM,7780 nM
same,IC50,second compound 0.1 µM,8170 nM
same,IC50,second compound 0.316 µM,< 31.6 nM
same,IC50,second compound 1 µM,< 31.6 nM
same,IC50,second compound 3.16 µM,< 31.6 nM
same,IC50,second compound 10 µM,< 31.6 nM
same,"viability, T/C",[1],122%
same,"viability, T/C",[2],107%
same,"viability, T/C",[3],101%
same,"viability, T/C",[4],95.2%
same,"viability, T/C",[5],80%
same,"viability, T/C",[6],41.2%
same,"viability, T/C",[7],98%
same,"viability, T/C",[8],89%
same,"viability, T/C",[9],102%
same,"viability, T/C",[10],88.9%
same,"viability, T/C",[11],80.3%
same,"viability, T/C",[12],43.4%
same,"viability, T/C",[13],23%
same,"viability, T/C",[14],26%
same,"viability, T/C",[15],32.9%
same,"viability, T/C",[16],29.2%
same,"viability, T/C",[17],26.8%
same,"viability, T/C",[18],19.9%
same,"viability, T/C",[19],0.13%
same,"viability, T/C",[20],0.23%
same,"viability, T/C",[21],0.79%
same,"viability, T/C",[22],0.13%
same,"viability, T/C",[23],0.57%
same,"viability, T/C",[24],0.16%
same,"viability, T/C",[25],0.06%
same,"viability, T/C",[26],0.6%
same,"viability, T/C",[27],0.1%
same,"viability, T/C",[28],0.08%
same,"viability, T/C",[29],0.27%
same,"viability, T/C",[30],1.67%
same,"viability, T/C",[31],0.07%
same,"viability, T/C",[32],0.13%
same,"viability, T/C",[33],0.14%
same,"viability, T/C",[34],0.13%
same,"viability, T/C",[35],0.92%
same,"viability, T/C",[36],0.65%
COc1cccc2c1C(=O)c1c(O)c3c(c(O)c1C2=O)CC(O)(C(=O)CO)CC3OC1CC(N)C(O)C(C)O1 (stereo unspecified) + CN1CCN(c2cc(C(=O)Nc3cc4cc(-c5cnn(C)c5)ccc4cn3)ccn2)CC1,IC50,second compound 0.0316 µM,< 31.6 nM
same,IC50,second compound 0.1 µM,< 31.6 nM
same,IC50,second compound 0.316 µM,< 31.6 nM
same,IC50,second compound 1 µM,< 31.6 nM
same,IC50,second compound 3.16 µM,< 31.6 nM
same,IC50,second compound 10 µM,< 31.6 nM
same,"viability, T/C",[1],22.1%
same,"viability, T/C",[2],17.5%
same,"viability, T/C",[3],7.83%
same,"viability, T/C",[4],0.53%
same,"viability, T/C",[5],0.16%
same,"viability, T/C",[6],1.13%
same,"viability, T/C",[7],16.5%
same,"viability, T/C",[8],14.2%
same,"viability, T/C",[9],5%
same,"viability, T/C",[10],0.45%
same,"viability, T/C",[11],0.14%
same,"viability, T/C",[12],0.19%
same,"viability, T/C",[13],16.5%
same,"viability, T/C",[14],13.5%
same,"viability, T/C",[15],4.02%
same,"viability, T/C",[16],0.15%
same,"viability, T/C",[17],0.1%
same,"viability, T/C",[18],0.12%
same,"viability, T/C",[19],0.16%
same,"viability, T/C",[20],0.14%
same,"viability, T/C",[21],0.14%
same,"viability, T/C",[22],0.08%
same,"viability, T/C",[23],0.11%
same,"viability, T/C",[24],0.08%
same,"viability, T/C",[25],0.06%
same,"viability, T/C",[26],0.1%
same,"viability, T/C",[27],0.09%
same,"viability, T/C",[28],0.07%
same,"viability, T/C",[29],0.09%
same,"viability, T/C",[30],0.08%
same,"viability, T/C",[31],0.05%
same,"viability, T/C",[32],0.61%
same,"viability, T/C",[33],0.11%
same,"viability, T/C",[34],0.12%
same,"viability, T/C",[35],0.11%
same,"viability, T/C",[36],0.1%
C=C(F)C(=O)N1CCN(c2nc(OCC3CCCN3C)nc3c2CCN(c2cccc4cccc(Cl)c24)C3)CC1CC#N (stereo unspecified) + CNC(=O)c1ccc(Nc2nc(OC3CCCC3)c3c(-c4ccc5nc(C)oc5c4)c[nH]c3n2)c(OC)c1,IC50,second compound 0.0316 µM,5950 nM
same,IC50,second compound 0.1 µM,3810 nM
same,IC50,second compound 0.316 µM,< 31.6 nM
same,IC50,second compound 1 µM,< 31.6 nM
same,IC50,second compound 3.16 µM,< 31.6 nM
same,IC50,second compound 10 µM,< 31.6 nM
same,"viability, T/C",[1],110%
same,"viability, T/C",[2],107%
same,"viability, T/C",[3],120%
same,"viability, T/C",[4],106%
same,"viability, T/C",[5],111%
same,"viability, T/C",[6],0.23%
same,"viability, T/C",[7],70.8%
same,"viability, T/C",[8],71.7%
same,"viability, T/C",[9],66.6%
same,"viability, T/C",[10],65%
same,"viability, T/C",[11],60.1%
same,"viability, T/C",[12],0.52%
same,"viability, T/C",[13],26%
same,"viability, T/C",[14],27.9%
same,"viability, T/C",[15],29%
same,"viability, T/C",[16],22.4%
same,"viability, T/C",[17],24.4%
same,"viability, T/C",[18],0.16%
same,"viability, T/C",[19],18.6%
same,"viability, T/C",[20],17.9%
same,"viability, T/C",[21],23%
same,"viability, T/C",[22],20.2%
same,"viability, T/C",[23],20.8%
same,"viability, T/C",[24],0.14%
same,"viability, T/C",[25],18.8%
same,"viability, T/C",[26],19.3%
same,"viability, T/C",[27],19.9%
same,"viability, T/C",[28],19.4%
same,"viability, T/C",[29],19.7%
same,"viability, T/C",[30],0.19%
same,"viability, T/C",[31],21.2%
same,"viability, T/C",[32],18.6%
same,"viability, T/C",[33],18.2%
same,"viability, T/C",[34],19.8%
same,"viability, T/C",[35],19.1%
same,"viability, T/C",[36],0.26%

# From PubChem BioAssay AID2060602 (Molecular Pharmacology Branch, DTP, NCI, 2025)
